Data set [1] has as its target T1, CDK2/cyclinA (Homo sapiens, UniProt P24941).
T1 construct: C-terminal 6His-tagged human full length cdk2 (MW=35 kDa); 6His (C); made in house; host or cells: Sf21 insect cells (baculovirus)
The data set can be described thus: CDK2 kinase assay (33P-ATP, Histone H1 substrate). In kind it is biochemical. To be noted: 1 μM ATP, 5 μM Histon H1, 2 hours at room temperature. From the text:
CDK2/cyclinA (Accession number for CDK2; EMBL M68520, for cyclin A; EMBL X51688): C-terminal 6His-tagged human full length cdk2 (MW=35 kDa), and N-terminal GST-tagged human full length cyclin A (MW=75 kDa) were expressed individually with baculovirus system in Sf21 insect cells. Recombinant cdk2 protein was purified with Ni2+/NTA agarose and then activated using CAK and repurified by Q Sepharose and Ni2+/NTA agarose. Recombinant cyclin A was purified using glutathione-agarose. They were then mixed in vitro to form protein complex. Recombinant protein complex was measured to be 67% in purity with SDS-PAGE and Coomassie blue staining. Specific activity of purified enzyme was measured to be 158 U/mg, where one unit of cdk2/cyclinA activity is defined as 1 nmol phosphate incorporated into 0.1 mg/ml histone H1 per minute at 30° C. with a final ATP concentration of […]. Enzyme was stored at a concentration of 0.1 mg/ml in 50 mM Tris/HCl pH7.5, 150 mM NaCl, 0.1 mM EGTA, 0.03% Brij-35, 270 mM sucrose, 1 mM benzamidine, 0.2 mM PMSF, 0.1% 2-mercaptoethanol. Frozen solution.
Histon H1 (Substrate for CDK2): Histone H1 (Sigma cat#H4524), was purified as a lysine rich fraction from calf thymus with 93% purity (MW=21.5 kDa). Purified protein was stored at a concentration of 20 mg/ml=930 μM in distilled water.
[…] (0.5 nmol) and 5 μM Histon H1 were mixed in the reaction buffer (20 mM HEPES (pH 7.5), 10 mM MgCl2, 1 mM EGTA, 0.02% Brij 35, 0.02 mg/ml BSA, 0.1 mM Na3VO4, 2 mM DTT) with final concentration of 1 μM ATP and 1% DMSO. The reaction was incubated for 2 hours at room temperature and conversion rate of ATP is about 4.5%. An equal volume of 25% TCA was added to stop the reaction and precipitate the labeled peptides. Precipitated proteins were trapped onto glass fiber B filterplates and excess […] p33 ATP was washed off. The plates were allowed to air-dry prior to the addition of 30 uL/well of Packard Microscint 20. The amount of incorporated isotope was measured using a Perkin Elmer TopCount plate reader. Different concentrations of compounds were added to reaction to assess the activity of compounds to inhibit […]. IC50 was calculated using Prism software with sigmoidal dose-response curve fitting.
The following TABLE B lists compounds representative of the invention and their activity in the CDK2 assay. In this assay, the following grading was used: I≧10 μM, 10 μM>II>1 μM, 1 μM>III>0.1 μM, and IV≦0.1 μM for IC50.

Data set [2] has as its target CDK1 (Homo sapiens, UniProt P06493). The data set can be described thus: CDK1 kinase inhibition (Table B). In kind it is biochemical.
In data set [3] the target is CDK3 (Homo sapiens, UniProt Q00526). Kind of data set: CDK3 kinase inhibition (Table B). Format: biochemical.
Data set [4] concerns the target CDK4 (Homo sapiens, UniProt P11802). The data set can be described thus: CDK4 kinase inhibition (Table B). In kind it is biochemical.
Data set [5] concerns the target CDK9 (Homo sapiens, UniProt P50750). Kind of data set: CDK9 kinase inhibition (Table B). In kind it is biochemical.

Bounds are passed on as bounds.

Sequence of CDK3 (Q00526 whole entry): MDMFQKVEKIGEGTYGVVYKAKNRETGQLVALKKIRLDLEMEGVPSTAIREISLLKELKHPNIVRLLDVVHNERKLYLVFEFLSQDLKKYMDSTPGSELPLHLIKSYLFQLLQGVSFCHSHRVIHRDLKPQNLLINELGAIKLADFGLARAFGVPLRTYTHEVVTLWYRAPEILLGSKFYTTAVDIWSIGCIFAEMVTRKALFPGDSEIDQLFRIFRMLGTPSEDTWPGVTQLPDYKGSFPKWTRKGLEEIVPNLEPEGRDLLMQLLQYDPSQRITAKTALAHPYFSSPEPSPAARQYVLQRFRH
Sequence of CDK3 (P24864 whole entry partner): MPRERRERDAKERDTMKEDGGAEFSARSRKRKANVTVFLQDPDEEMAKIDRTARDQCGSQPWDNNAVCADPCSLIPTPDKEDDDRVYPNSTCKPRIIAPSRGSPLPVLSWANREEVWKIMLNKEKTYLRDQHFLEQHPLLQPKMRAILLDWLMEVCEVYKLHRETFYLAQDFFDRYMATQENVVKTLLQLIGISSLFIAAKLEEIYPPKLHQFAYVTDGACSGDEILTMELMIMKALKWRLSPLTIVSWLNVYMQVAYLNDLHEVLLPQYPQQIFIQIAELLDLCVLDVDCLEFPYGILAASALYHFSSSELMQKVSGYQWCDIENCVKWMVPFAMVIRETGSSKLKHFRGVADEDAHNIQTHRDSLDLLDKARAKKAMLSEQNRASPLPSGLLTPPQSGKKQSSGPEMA
Sequence of CDK9 (P50750 whole entry): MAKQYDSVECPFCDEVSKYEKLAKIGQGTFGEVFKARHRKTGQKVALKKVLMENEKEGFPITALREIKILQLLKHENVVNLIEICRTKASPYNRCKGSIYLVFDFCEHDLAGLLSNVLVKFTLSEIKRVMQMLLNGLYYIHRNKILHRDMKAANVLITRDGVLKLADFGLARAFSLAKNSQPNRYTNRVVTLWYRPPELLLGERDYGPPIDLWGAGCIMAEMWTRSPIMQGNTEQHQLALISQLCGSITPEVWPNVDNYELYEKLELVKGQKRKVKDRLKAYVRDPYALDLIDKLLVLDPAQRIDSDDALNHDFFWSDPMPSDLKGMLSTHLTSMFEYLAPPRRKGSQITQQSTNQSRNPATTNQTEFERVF
Sequence of CDK9 (O60563 whole entry partner): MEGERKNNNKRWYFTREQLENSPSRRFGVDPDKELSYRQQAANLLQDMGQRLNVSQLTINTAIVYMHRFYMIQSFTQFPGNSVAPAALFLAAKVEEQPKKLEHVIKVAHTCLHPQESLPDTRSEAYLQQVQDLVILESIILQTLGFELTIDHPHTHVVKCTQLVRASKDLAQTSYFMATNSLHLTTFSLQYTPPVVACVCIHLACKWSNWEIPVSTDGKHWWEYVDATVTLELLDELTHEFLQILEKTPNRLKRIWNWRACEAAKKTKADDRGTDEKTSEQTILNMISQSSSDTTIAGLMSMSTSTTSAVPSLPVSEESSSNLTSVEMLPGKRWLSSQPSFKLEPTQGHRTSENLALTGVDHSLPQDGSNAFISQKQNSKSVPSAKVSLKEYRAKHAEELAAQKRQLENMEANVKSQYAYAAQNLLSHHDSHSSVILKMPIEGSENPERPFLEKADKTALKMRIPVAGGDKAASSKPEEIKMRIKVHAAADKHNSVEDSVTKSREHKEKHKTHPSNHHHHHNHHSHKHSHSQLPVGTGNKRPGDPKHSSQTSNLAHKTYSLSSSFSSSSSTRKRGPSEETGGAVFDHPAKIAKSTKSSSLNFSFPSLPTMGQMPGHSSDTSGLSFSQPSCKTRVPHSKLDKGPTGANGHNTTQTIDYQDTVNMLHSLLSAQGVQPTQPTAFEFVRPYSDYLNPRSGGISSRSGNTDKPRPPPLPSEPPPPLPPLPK
Sequence of CDK4 (P11802 whole entry): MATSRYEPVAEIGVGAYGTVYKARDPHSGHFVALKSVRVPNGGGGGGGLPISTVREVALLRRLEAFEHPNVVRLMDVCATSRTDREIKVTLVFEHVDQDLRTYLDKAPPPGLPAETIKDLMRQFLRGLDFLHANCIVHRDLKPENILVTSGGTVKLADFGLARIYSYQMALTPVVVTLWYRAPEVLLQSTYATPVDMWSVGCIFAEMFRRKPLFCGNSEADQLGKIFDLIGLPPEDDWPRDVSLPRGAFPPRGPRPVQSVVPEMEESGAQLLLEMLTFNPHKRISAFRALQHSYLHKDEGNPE
Sequence of CDK4 (P24385 whole entry partner): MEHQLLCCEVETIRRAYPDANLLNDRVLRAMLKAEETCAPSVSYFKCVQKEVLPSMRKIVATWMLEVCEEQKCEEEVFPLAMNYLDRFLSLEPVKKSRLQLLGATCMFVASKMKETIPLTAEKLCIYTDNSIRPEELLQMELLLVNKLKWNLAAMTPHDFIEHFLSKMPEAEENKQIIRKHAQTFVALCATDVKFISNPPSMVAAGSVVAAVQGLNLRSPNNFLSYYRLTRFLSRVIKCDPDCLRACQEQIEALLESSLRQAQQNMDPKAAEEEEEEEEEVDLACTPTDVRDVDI
Sequence of CDK1 (P06493 whole entry): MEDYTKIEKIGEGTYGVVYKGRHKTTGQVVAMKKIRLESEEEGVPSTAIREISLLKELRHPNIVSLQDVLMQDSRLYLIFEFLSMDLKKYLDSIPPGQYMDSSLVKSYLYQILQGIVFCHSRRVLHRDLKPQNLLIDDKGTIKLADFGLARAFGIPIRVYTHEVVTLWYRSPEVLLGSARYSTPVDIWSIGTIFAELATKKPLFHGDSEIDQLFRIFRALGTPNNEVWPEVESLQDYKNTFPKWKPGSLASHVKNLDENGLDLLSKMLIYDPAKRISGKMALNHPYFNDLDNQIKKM
Sequence of CDK1 (P14635 whole entry partner): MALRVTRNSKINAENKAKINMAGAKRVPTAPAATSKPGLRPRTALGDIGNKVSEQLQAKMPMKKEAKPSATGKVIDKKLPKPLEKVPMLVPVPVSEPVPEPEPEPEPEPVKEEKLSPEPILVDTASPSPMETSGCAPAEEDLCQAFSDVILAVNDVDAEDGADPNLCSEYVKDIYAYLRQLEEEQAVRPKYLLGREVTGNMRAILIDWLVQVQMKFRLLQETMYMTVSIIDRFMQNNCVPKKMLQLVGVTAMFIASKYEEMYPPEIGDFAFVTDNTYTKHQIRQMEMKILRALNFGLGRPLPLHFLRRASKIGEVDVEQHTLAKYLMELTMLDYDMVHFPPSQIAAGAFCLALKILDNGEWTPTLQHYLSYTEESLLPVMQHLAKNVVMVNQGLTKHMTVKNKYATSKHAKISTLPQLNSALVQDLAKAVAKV

As usually defined, the IC50 is the concentration that gives 50% inhibition. Read a high IC50 as a need for much substance. `CC(C)(C)c1cnc(CSc2cnc(NC(=O)CCCCCCC(=O)Nc3ccccc3N)s2)o1` [Compound 18, N^1-(2-aminophenyl)-N^8-(5-((5-tert-butyloxazol-2-yl)methylthio)thiazol-2-yl)octanediamide]: the IC50 is no more than 100 nM in data set [1]; no more than 100 nM in data set [2]; no more than 100 nM in data set [3]; 100 to 1000 nM in data set [4]; no more than 100 nM in data set [5].

By melting point is commonly meant the temperature of the solid-liquid transition. `CC(C)(C)c1cnc(CSc2cnc(NC(=O)CCCCCCC(=O)Nc3ccc(C(F)(F)F)cc3N)s2)o1` [Compound 25, N^1-(2-amino-4-(trifluoromethyl)phenyl)-N^8-(5-((5-tert-butyloxazol-2-yl)methylthio)thiazol-2-yl)octanediamide] gave a melting point of 114 to 116 °C. Further, the IC50 in data set [1] was no more than 100 nM.

For the molecule `CC(C)(C)c1cnc(CSc2cnc(NC(=O)CCCCCCC(=O)Nc3cc(C(F)(F)F)ccc3N)s2)o1` [Compound 24, N^1-(2-amino-5-(trifluoromethyl)phenyl)-N^8-(5-((5-tert-butyloxazol-2-yl)methylthio)thiazol-2-yl)octanediamide], the melting point was 77 to 82 °C. This molecule also yielded an IC50 in data set [1] of no more than 100 nM.

On to `CC(C)N(O)C(=O)CCCCCCC(=O)Nc1ncc(SCc2ncc(C(C)(C)C)o2)s1` [Compound 5, N^1-(5-((5-tert-butyloxazol-2-yl)methylthio)thiazol-2-yl)-N^8-hydroxy-N^8-isopropyloctanediamide], for which the IC50 in data set [1] is no more than 100 nM; in data set [2], no more than 100 nM; in data set [3] it was no more than 100 nM; in data set [4] it was 100 to 1000 nM; in data set [5], no more than 100 nM.

The values are drawn from US8691820B2, “CDK inhibitors” (Curis, Inc., priority 2008, dated 2014).
